“Also recorded” adds a separate entry of the source.
Experiments:
PfDHODH = target: T1, PfDHODH (Plasmodium falciparum, UniProt Q08210); assay: DHODH inhibition, Plasmodium falciparum; format: biochemical
T1 sequence (Q08210 24-569): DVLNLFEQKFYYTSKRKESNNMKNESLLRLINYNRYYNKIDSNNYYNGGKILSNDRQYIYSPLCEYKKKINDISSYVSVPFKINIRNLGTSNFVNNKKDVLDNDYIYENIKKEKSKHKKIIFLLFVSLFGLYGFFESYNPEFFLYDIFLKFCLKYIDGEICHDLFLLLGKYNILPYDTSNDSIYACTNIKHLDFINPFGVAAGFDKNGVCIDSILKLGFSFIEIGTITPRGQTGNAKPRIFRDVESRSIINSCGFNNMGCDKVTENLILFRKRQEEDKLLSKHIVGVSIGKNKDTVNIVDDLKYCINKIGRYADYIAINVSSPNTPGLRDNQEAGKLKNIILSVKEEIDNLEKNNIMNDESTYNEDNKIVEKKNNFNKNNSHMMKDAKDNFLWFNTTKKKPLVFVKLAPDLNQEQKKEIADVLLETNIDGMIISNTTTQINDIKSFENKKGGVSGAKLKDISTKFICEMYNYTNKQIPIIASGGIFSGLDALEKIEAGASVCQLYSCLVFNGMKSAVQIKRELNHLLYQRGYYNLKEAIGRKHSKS

[1] = test system: B16-F10 mouse melanoma tumor cells; assay: B16-F10 syngeneic mouse melanoma model; format: in vivo; conditions: athymic mice, 35 mg/kg IP 3 × weekly (M, W, F) for two weeks
[2] = Dose-finding study in athymic mice; conditions: 35 mg/kg three times weekly for 4 weeks

SMILES	IC50 (PfDHODH) [µM]	growth rate of primary B16-F10 tumor [1]	loss in weight in dose-finding study [2]	toxicity in dose-finding study [2]
COc1cccc(Nc2nc(N)nc3c2-c2ccccc2C3)c1 [Compound 11, N^4-(3-Methoxyphenyl)-9H-indeno[2,1-d]pyrimidine-2,4-diamine]	≥ 200			
Nc1nc2c(c(Nc3ccc(Cl)cc3)n1)-c1ccccc1C2 [Compound 7, N^4-(4-Chlorophenyl)-9H-indeno[2,1-d]pyrimidine-2,4-diamine]	≥ 200	equipotent with the standard 21; also recorded: decreased tumor growth rate	no significant loss in weight	no apparent toxicity
Nc1nc2c(c(Nc3ccccc3)n1)-c1ccccc1C2 [Compound 1, N^4-Phenyl-9H-indeno[2,1-d]pyrimidine-2,4-diamine]	≥ 200			
Nc1nc2c(c(Nc3cccc(Br)c3)n1)-c1ccccc1C2 [Compound 8, N^4-(3-Bromophenyl)-9H-indeno[2,1-d]pyrimidine-2,4-diamine]	≥ 200			
Nc1nc2c(c(Nc3cccc(F)c3)n1)-c1ccccc1C2 [Compound 4, N^4-(3-Fluorophenyl)-9H-indeno[2,1-d]pyrimidine-2,4-diamine]	≥ 200			
Nc1nc2c(c(Nc3ccc(Cl)cc3F)n1)-c1ccccc1C2 [Compound 13, N^4-(4-Chloro-2-fluorophenyl)-9H-indeno[2,1-d]pyrimidine-2,4-diamine]	≥ 200			
